# Test results published in US12226424B2, “Target protein degradation compounds, their anti-tumor use, their intermediates and use of intermediates” (ShanghaiTech University, priority 2018, dated 2025).
# System: CDK4/6 protein
# Assay: Western-blot determination of CDK4/6 protein degradation (DC50) in T-47D cells
# Format: cell-based, human
# Details: 24 h drug treatment, read-out: DC50(nM)/T-47D cell line
row,Structure (SMILES),DC50 [nM]
1,"CC(=O)c1c(C)c2cnc(Nc3ccc(N4CCN(C(=O)CCCSc5cccc6c5CN(C5CCC(=O)NC5=O)C6=O)CC4)cn3)nc2n(C2CCCC2)c1=O (centres unmarked) [SIAIS219053, 3-(4-((4-(4-(6-((6-acetyl-8-cyclopentyl-5-methyl-7-oxo-7,8-dihydropyrido[2,3-d]pyrimidin-2-yl)amino)pyridin-3-yl)piperazin-1-yl)-4-oxobutyl)thio)-1-oxoisoindolin-2-yl)piperidine-2,6-dione]",< 1
2,"CC(=O)c1c(C)c2cnc(Nc3ccc(N4CCN(C(=O)COCCOCCOCCOCCSc5cccc6c5C(=O)N(C5CCC(=O)NC5=O)C6=O)CC4)cn3)nc2n(C2CCCC2)c1=O (centres unmarked) [SIAIS219061, 4-((14-(4-(6-((6-acetyl-8-cyclopentyl-5-methyl-7-oxo-7,8-dihydropyrido[2,3-d]pyrimidin-2-yl)amino)pyridin-3-yl)piperazin-1-yl)-14-oxo-3,6,9,12-tetraoxatetradecyl)thio)-2-(2,6-dioxopiperidin-3-yl)isoindoline-1,3-dione]",1 to 10
3,"CN(C)C(=O)c1cc2cnc(Nc3ccc(N4CCN(C(=O)COCCOCCSc5cccc6c5CN(C5CCC(=O)NC5=O)C6=O)CC4)cn3)nc2n1C1CCCC1 (centres unmarked) [SIAIS219107, 7-cyclopentyl-2-((5-(4-(2-(2-(2-((2-(2,6-dioxopiperidin-3-yl)-1-oxoisoindolin-4-yl)thio)ethoxy)ethoxy)acetyl)piperazin-1-yl)pyridin-2-yl)amino)-N,N-dimethyl-7H-pyrrolo[2,3-d]pyrimidine-6-carboxamide]",0.04 to 0.2

# Next, values leading:
row,DC50 [nM],Structure (SMILES)
1,0.5,"Cc1nc2c(F)cc(-c3nc(Nc4ccc(CN5CCN(C(=O)COCCSc6cccc7c6CN(C6CCC(=O)NC6=O)C7=O)CC5)cn4)ncc3F)cc2n1C(C)C (centres unmarked) [SIAIS262171, 3-(4-((2-(2-(4-((6-((5-fluoro-4-(4-fluoro-1-isopropyl-2-methyl-1H-benzo[d]imidazol-6-yl)pyrimidin-2-yl)amino)pyridin-3-yl)methyl)piperazin-1-yl)-2-oxoethoxy)ethyl)thio)-1-oxoisoindolin-2-yl)piperidine-2,6-dione]"
2,0.05 to 0.5,"Cc1nc2c(F)cc(-c3nc(Nc4ccc(CN5CCN(C(=O)CCCCCSc6cccc7c6CN(C6CCC(=O)NC6=O)C7=O)CC5)cn4)ncc3F)cc2n1C(C)C (centres unmarked) [SIAIS262168, 3-(4-((6-(4-((6-((5-fluoro-4-(4-fluoro-1-isopropyl-2-methyl-1H-benzo[d]imidazol-6-yl)pyrimidin-2-yl)amino)pyridin-3-yl)methyl)piperazin-1-yl)-6-oxohexyl)thio)-1-oxoisoindolin-2-yl)piperidine-2,6-dione]"
3,100 to 500,"CC(=O)c1c(C)c2cnc(Nc3ccc(N4CCN(C(=O)C[S+]([O-])c5cccc6c5C(=O)N(C5CCC(=O)NC5=O)C6=O)CC4)cn3)nc2n(C2CCCC2)c1=O (centres unmarked) [SIAIS151057, 4-((2-(4-(6-((6-acetyl-8-cyclopentyl-5-methyl-7-oxo-7,8-dihydropyrido[2,3-d]pyrimidin-2-yl)amino)pyridin-3-yl)piperazin-1-yl)-2-oxoethyl)sulfinyl)-2-(2,6-dioxopiperidin-3-yl)isoindoline-1,3-dione]"
4,0.5 to 5,"Cc1nc2c(F)cc(-c3nc(Nc4ccc(CN5CCN(C(=O)CCCSc6cccc7c6CN(C6CCC(=O)NC6=O)C7=O)CC5)cn4)ncc3F)cc2n1C(C)C (centres unmarked) [SIAIS262166, 3-(4-((4-(4-((6-((5-fluoro-4-(4-fluoro-1-isopropyl-2-methyl-1H-benzo[d]imidazol-6-yl)pyrimidin-2-yl)amino)pyridin-3-yl)methyl)piperazin-1-yl)-4-oxobutyl)thio)-1-oxoisoindolin-2-yl)piperidine-2,6-dione]"
5,1 to 10,"CN(C)C(=O)c1cc2cnc(Nc3ccc(N4CCN(C(=O)COCCOCCOCCOCCSc5cccc6c5CN(C5CCC(=O)NC5=O)C6=O)CC4)cn3)nc2n1C1CCCC1 (centres unmarked) [SIAIS219109, 7-cyclopentyl-2-((5-(4-(14-((2-(2,6-dioxopiperidin-3-yl)-1-oxoisoindolin-4-yl)thio)-3,6,9,12-tetraoxatetradecanoyl)piperazin-1-yl)pyridin-2-yl)amino)-N,N-dimethyl-7H-pyrrolo[2,3-d]pyrimidine-6-carboxamide]"
